Source: patent publication US6737383B1, “Herbicidal oxadiazolidines” (priority 1999, dated 2004)

Tests used:
blackgrass = test: Test B pre/postemergence blackgrass; assay type: in vivo, Alopecurus myosuroides
How it was run: (§1)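 Response is a visual 0-to-10 score relative to untreated plants, where 0 means no effect and 10 means complete control, taken twelve to sixteen days after application. Treatments went onto soil at planting and onto foliage of 1- to 4-leaf plants, using a surfactant-containing non-phytotoxic solvent.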

giant foxtail = test: Test B pre/postemergence giant foxtail; assay type: in vivo, Setaria faberii
How it was run: as §1

purple nutsedge = test: Test B pre/postemergence purple nutsedge; assay type: in vivo, Cyperus rotundus
How it was run: as §1

pigweed = test: Test B pre/postemergence pigweed; assay type: in vivo, Amaranthus retroflexus
How it was run: as §1

wild oat = test: Test B pre/postemergence wild oat; assay type: in vivo, Avena fatua
How it was run: as §1

surinam grass = test: Test B pre/postemergence surinam grass; assay type: in vivo, Brachiaria decumbens
How it was run: as §1

velvetleaf = test: Test B pre/postemergence velvetleaf; assay type: in vivo, Abutilon theophrasti
How it was run: as §1

smallflower flatsedge = test: Test B flood test smallflower flatsedge; assay type: in vivo, Cyperus difformis
How it was run: (§2)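 Each value is a visual injury score relative to controls, with 10 meaning complete control and 0 no effect. Evaluation took place twelve to sixteen days after the 2-leaf-stage plants were treated and kept in the greenhouse.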

bedstraw = test: Test B pre/postemergence bedstraw; assay type: in vivo, Galium aparine
How it was run: as §1

crabgrass = test: Test B pre/postemergence crabgrass; assay type: in vivo, Digitaria sanguinalis
How it was run: as §1

sugar beet = test: Test B pre/postemergence sugar beet; assay type: in vivo, Beta vulgaris
How it was run: as §1

soybean = test: Test B pre/postemergence soybean; assay type: in vivo, Glycine max
How it was run: as §1

cocklebur = test: Test B pre/postemergence cocklebur; assay type: in vivo, Xanthium strumarium
How it was run: as §1

bamyardgrass = test: Test B flood test barnyardgrass; assay type: in vivo, Echinochloa crus-galli
How it was run: as §2

corn = test: Test B pre/postemergence corn; assay type: in vivo, Zea mays
How it was run: as §1

rice = test: Test B flood test rice; assay type: in vivo, Oryza sativa
How it was run: as §2

[1] = Postemergence, Rate 125 g/ha, scale 0 to 10, 0 is no effect, 10 is complete control
[2] = Preemergence, Rate 62 g/ha, scale of 0 to 10 where 0 is no effect and 10 is complete control
[3] = Preemergence, Rate 250 g/ha, scale of 0 to 10 where 0 is no effect and 10 is complete control
[4] = Preemergence, Rate 500 g/ha, scale of 0 to 10 where 0 is no effect and 10 is complete control
[5] = Rate 62 g/ha, Postemergence, scale 0 to 10 (0 no effect, 10 complete control)
[6] = Rate 250 g/ha, Postemergence, scale of 0 to 10 where 0 is no effect and 10 is complete control
[7] = Rate 500 g/ha, Postemergence, scale 0 to 10, 0 no effect, 10 complete control
[8] = Rate 62 g/ha, headed Pre-emergence (flood test species), scale 0 to 10 (0 no effect, 10 complete control)
[9] = Rate 125 g/ha, Pre-emergence, flood test species, scale 0 to 10 where 0 is no effect and 10 is complete control
[10] = Rate 250 g/ha, Pre-emergence, flood-test species, scale 0 to 10, 0 is no effect, 10 is complete control
[11] = Rate 500 g/ha, Pre-emergence, flood test species, scale 0 to 10 (0 no effect, 10 complete control)

Cc1c(-n2c(=O)on(C(=O)N(c3ccc(Cl)cc3)C(C)C)c2=O)ccc2ccccc12 [Compound 336]
Plant response rating, Blackgrass (blackgrass; [1]): 0 | Blackgrass plant response rating (blackgrass; [2]): 0 | Blackgrass plant response rating (0 to 10 scale) (blackgrass; Preemergence, Rate 125 g/ha): 0 | Blackgrass plant response rating (blackgrass; [3]): 0 | Blackgrass plant response rating (blackgrass; [4]): 0 | Blackgrass plant response rating (blackgrass; [5]): 0 | Plant response rating, Blackgrass (blackgrass; [6]): 0 | Plant response rating, Blackgrass (blackgrass; [7]): 0 | Plant response rating, Giant foxtail (giant foxtail; [1]): 0 | Giant foxtail plant response rating (giant foxtail; [2]): 0 | Giant foxtail plant response rating (0 to 10 scale) (giant foxtail; Preemergence, Rate 125 g/ha): 0 | Giant foxtail plant response rating (giant foxtail; [3]): 0 | Giant foxtail plant response rating (giant foxtail; [4]): 0 | Giant foxtail plant response rating (giant foxtail; [5]): 0 | Plant response rating, Giant foxtail (giant foxtail; [7]): 0 | Plant response rating, Nutsedge (purple nutsedge; [1]): 0 | Nutsedge plant response rating (purple nutsedge; [2]): 0 | Nutsedge plant response rating (0 to 10 scale) (purple nutsedge; Preemergence, Rate 125 g/ha): 0 | Nutsedge plant response rating (purple nutsedge; [3]): 0 | Nutsedge plant response rating (purple nutsedge; [4]): 0 | Nutsedge plant response rating (purple nutsedge; [5]): 0 | Plant response rating, Nutsedge (purple nutsedge; [7]): 0 | Plant response rating, Redroot pigweed (pigweed; [1]): 0 | Redroot pigweed plant response rating (pigweed; [2]): 0 | Redroot pigweed plant response rating (0 to 10 scale) (pigweed; Preemergence, Rate 125 g/ha): 0 | Redroot pigweed plant response rating (pigweed; [3]): 0 | Redroot pigweed plant response rating (pigweed; [4]): 0 | Redroot pigweed plant response rating (pigweed; [5]): 0 | Plant response rating, Redroot pigweed (pigweed; [7]): 0 | Plant response rating, Wild oats (wild oat; [1]): 0 | Wild oats plant response rating (wild oat; [2]): 0 | Wild oats plant response rating (0 to 10 scale) (wild oat; Preemergence, Rate 125 g/ha): 0 | Wild oats plant response rating (wild oat; [3]): 0 | Wild oats plant response rating (wild oat; [4]): 0 | Wild oats plant response rating (wild oat; [5]): 0 | Plant response rating, Wild oats (wild oat; [7]): 0 | Plant response rating, B. signalgrass (surinam grass; [1]): 0 | B. signalgrass plant response rating (surinam grass; [2]): 0 | B. signalgrass plant response rating (0 to 10 scale, 0 is no effect, 10 is complete control) (surinam grass; Preemergence, Rate 125 g/ha): 0 | B. signalgrass plant response rating (surinam grass; [3]): 0 | B. signalgrass plant response rating (surinam grass; [4]): 0 | B. signalgrass plant response rating (surinam grass; [5]): 0 | Plant response rating, B. signalgrass (surinam grass; [6]): 0 | Plant response rating, B. signalgrass (surinam grass; [7]): 0 | Plant response rating, Velvetleaf (velvetleaf; [1]): 0 | Velvetleaf plant response rating (velvetleaf; [2]): 0 | Velvetleaf plant response rating (0 to 10 scale) (velvetleaf; Preemergence, Rate 125 g/ha): 0 | Velvetleaf plant response rating (velvetleaf; [3]): 0 | Velvetleaf plant response rating (velvetleaf; [4]): 0 | Velvetleaf plant response rating (velvetleaf; [5]): 0 | Plant response rating, Velvetleaf (velvetleaf; [7]): 0 | S. Flatsedge plant response rating (smallflower flatsedge; [8]): 0 | S. Flatsedge plant response rating (smallflower flatsedge; [9]): 0 | S. Flatsedge plant response rating (smallflower flatsedge; [10]): 0 | S. Flatsedge plant response rating (smallflower flatsedge; [11]): 0 | Plant response rating, Bedstraw (bedstraw; [1]): 0 | Bedstraw plant response rating (bedstraw; [2]): 0 | Bedstraw plant response rating (0 to 10 scale) (bedstraw; Preemergence, Rate 125 g/ha): 0 | Bedstraw plant response rating (bedstraw; [3]): 0 | Bedstraw plant response rating (bedstraw; [4]): 0 | Bedstraw plant response rating (bedstraw; [5]): 0 | Plant response rating, Bedstraw (bedstraw; [6]): 0 | Plant response rating, Bedstraw (bedstraw; [7]): 0 | Plant response rating, Crabgrass (crabgrass; [1]): 0 | Crabgrass plant response rating (crabgrass; [2]): 0 | Crabgrass plant response rating (0 to 10 scale) (crabgrass; Preemergence, Rate 125 g/ha): 0 | Crabgrass plant response rating (crabgrass; [3]): 0 | Crabgrass plant response rating (crabgrass; [4]): 0 | Crabgrass plant response rating (crabgrass; [5]): 0 | Plant response rating, Crabgrass (crabgrass; [7]): 0 | Plant response rating, Sugarbeets (sugar beet; [1]): 0 | Sugarbeets plant response rating (sugar beet; [2]): 0 | Sugarbeets plant response rating (0 to 10 scale) (sugar beet; Preemergence, Rate 125 g/ha): 0 | Sugarbeets plant response rating (sugar beet; [3]): 0 | Sugarbeets plant response rating (sugar beet; [4]): 0 | Sugarbeets plant response rating (sugar beet; [5]): 0 | Plant response rating, Sugarbeets (sugar beet; [7]): 0 | Plant response rating, Soybean (soybean; [1]): 1 | Soybean plant response rating (soybean; [2]): 0 | Soybean plant response rating (0 to 10 scale) (soybean; Preemergence, Rate 125 g/ha): 0 | Soybean plant response rating (soybean; [3]): 0 | Soybean plant response rating (soybean; [4]): 0 | Soybean plant response rating (soybean; [5]): 1 | Plant response rating, Soybean (soybean; [7]): 2 | Plant response rating, Cocklebur (cocklebur; [1]): 0 | Cocklebur plant response rating (cocklebur; [2]): 0 | Cocklebur plant response rating (0 to 10 scale) (cocklebur; Preemergence, Rate 125 g/ha): 0 | Cocklebur plant response rating (cocklebur; [3]): 0 | Cocklebur plant response rating (cocklebur; [4]): 0 | Cocklebur plant response rating (cocklebur; [5]): 0 | Plant response rating, Cocklebur (cocklebur; [7]): 0 | Barnyardgrass plant response rating (bamyardgrass; [8]): 0 | Barnyardgrass plant response rating (bamyardgrass; [9]): 0 | Barnyardgrass plant response rating (bamyardgrass; [10]): 0 | Barnyardgrass plant response rating (bamyardgrass; [11]): 0 | Plant response rating, Corn (corn; [1]): 0 | Corn plant response rating (corn; [2]): 0 | Corn plant response rating (0 to 10 scale) (corn; Preemergence, Rate 125 g/ha): 0 | Corn plant response rating (corn; [3]): 0 | Corn plant response rating (corn; [4]): 0 | Corn plant response rating (corn; [5]): 0 | Plant response rating, Corn (corn; [7]): 0 | Rice plant response rating (rice; [8]): 0 | Rice plant response rating (rice; [9]): 0 | Rice plant response rating (rice; [10]): 0 | Rice plant response rating (rice; [11]): 0
